“And” between values parts separate entries of the source, which are not always exact repeats. Equal entries are not always repeated. Inconclusive results and toxic doses are left out. Rule for the calls: active = survival T/C of 150% or more; inactive = T/C below 125% in these data.
System: CD2F1 mice, L1210 leukemia ip, survival T/C
Assay: NCI In Vivo Anticancer Drug Screen. Data for tumor model L1210 Leukemia (intraperitoneal) in CD2F1 (CDF1) mice
Settings: higher = longer survival
Method in brief: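 Antitumor effect is scored in animals hosting a serially transplanted tumor. Values compare compound-dosed animals against vehicle-only controls as a simple quotient.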

[1] = endpoint: mean survival time, dose: 100.0 mg/kg/injection, schedule: Q01DX001 (ip), vehicle: saline with Tween-80
[2] = endpoint: mean survival time, dose: 100.0 mg/kg/injection, schedule: Q01DX009 (ip), vehicle: saline with Tween-80
[3] = endpoint: mean survival time, dose: 200.0 mg/kg/injection, schedule: Q01DX001 (ip), vehicle: saline with Tween-80
[4] = endpoint: mean survival time, dose: 200.0 mg/kg/injection, schedule: Q01DX009 (ip), vehicle: saline with Tween-80
[5] = endpoint: mean survival time, dose: 400.0 mg/kg/injection, schedule: Q01DX001 (ip), vehicle: saline with Tween-80
[6] = endpoint: mean survival time, dose: 400.0 mg/kg/injection, schedule: Q01DX009 (ip), vehicle: saline with Tween-80
[7] = endpoint: mean survival time, dose: 6.25 mg/kg/injection, schedule: Q01DX009 (ip), vehicle: saline with Tween-80
[8] = endpoint: mean survival time, dose: 12.5 mg/kg/injection, schedule: Q01DX009 (ip), vehicle: saline with Tween-80
[9] = endpoint: mean survival time, dose: 25.0 mg/kg/injection, schedule: Q01DX009 (ip), vehicle: saline with Tween-80
[10] = endpoint: mean survival time, dose: 100.0 mg/kg/injection, schedule: Q04DX003 (ip), vehicle: saline with Tween-80
[11] = endpoint: mean survival time, dose: 200.0 mg/kg/injection, schedule: Q04DX003 (ip), vehicle: saline with Tween-80
[12] = endpoint: mean survival time, dose: 400.0 mg/kg/injection, schedule: Q04DX003 (ip), vehicle: saline with Tween-80
[13] = endpoint: mean survival time, dose: 100.0 mg/kg/injection, schedule: Q04DX002 (ip), vehicle: saline with Tween-80
[14] = endpoint: mean survival time, dose: 200.0 mg/kg/injection, schedule: Q04DX002 (ip), vehicle: saline with Tween-80
[15] = endpoint: mean survival time, dose: 50.0 mg/kg/injection, schedule: Q01DX009 (ip), vehicle: saline
[16] = endpoint: mean survival time, dose: 100.0 mg/kg/injection, schedule: Q01DX009 (ip), vehicle: saline
[17] = endpoint: mean survival time, dose: 100.0 mg/kg/injection, schedule: Q01DX001 (ip), vehicle: saline
[18] = endpoint: mean survival time, dose: 200.0 mg/kg/injection, schedule: Q01DX001 (ip), vehicle: saline
[19] = endpoint: mean survival time, dose: 400.0 mg/kg/injection, schedule: Q01DX001 (ip), vehicle: saline
[20] = endpoint: mean survival time, dose: 400.0 mg/kg/injection, schedule: Q04DX002 (ip), vehicle: saline with Tween-80
[21] = endpoint: mean survival time, dose: 100.0 mg/kg/injection, schedule: Q01DX001 (ip), vehicle: Klucel (hydroxypropylcellulose) (HPC)
[22] = endpoint: mean survival time, dose: 200.0 mg/kg/injection, schedule: Q01DX001 (ip), vehicle: Klucel (hydroxypropylcellulose) (HPC)
[23] = endpoint: mean survival time, dose: 400.0 mg/kg/injection, schedule: Q01DX001 (ip), vehicle: Klucel (hydroxypropylcellulose) (HPC)

Measured: T/C

COC1=C(C)C(=O)c2c(c(COC(N)=O)c3n2CCC3OC(N)=O)C1=O (stereo not drawn)
inactive: endpoint: mean survival time, dose: 1.25 mg/kg/injection, schedule: Q01DX001 (ip), vehicle: distilled water + Tween-80 108 % of control | endpoint: mean survival time, dose: 1.5 mg/kg/injection, schedule: Q01DX001 (ip), vehicle: distilled water + Tween-80 114 % of control | endpoint: mean survival time, dose: 2.5 mg/kg/injection, schedule: Q01DX001 (ip), vehicle: distilled water + Tween-80 120 % of control | endpoint: mean survival time, dose: 3.0 mg/kg/injection, schedule: Q01DX001 (ip), vehicle: distilled water + Tween-80 118 % of control | endpoint: mean survival time, dose: 5.0 mg/kg/injection, schedule: Q01DX001 (ip), vehicle: distilled water + Tween-80 117 % of control | endpoint: mean survival time, dose: 6.0 mg/kg/injection, schedule: Q01DX001 (ip), vehicle: distilled water + Tween-80 116 % of control | endpoint: mean survival time, dose: 10.0 mg/kg/injection, schedule: Q01DX001 (ip), vehicle: distilled water + Tween-80 115 % of control | endpoint: mean survival time, dose: 12.0 mg/kg/injection, schedule: Q01DX001 (ip), vehicle: distilled water + Tween-80 122 % of control

CC(=O)Nc1cc2ccccc2c2ccc3ccccc3c12
inactive: [1] 89 % of control | [2] 96 % of control | [3] 93 % of control | [4] 95 % of control | [5] 102 % of control | [6] 96 % of control

O=NC1C(=O)C2CC1CC2C(=O)OC(=O)C1CC2CC1C(=O)C2N=O (stereo not drawn)
inactive: endpoint: mean survival time, dose: 75.0 mg/kg/injection, schedule: Q01DX001 (ip), vehicle: other 108 % of control | endpoint: mean survival time, dose: 150.0 mg/kg/injection, schedule: Q01DX001 (ip), vehicle: other 108 % of control

CSc1ccc(N=C=C(c2ccccc2)c2ccccc2)cc1
inactive: [7] 96 % of control | [8] 94 % of control | [9] 94 % of control | [10] 93 % of control | [11] 95 % of control | [12] 97 % of control

CCN(CC)CC(O)CNc1cc(C)nc(/N=C(\N)Nc2ccc(Cl)c(Cl)c2)n1 (stereo not drawn)
inactive: [7] 98 % of control | [8] 104 % of control | [9] 106 % of control

O=S(=O)(F)c1ccc(Cl)c(Cl)c1S
inactive: [13] 98 % of control | [14] 98 % of control

NC(CSC(c1ccccc1)(c1ccccc1)c1ccccc1)C(=O)O (stereo not drawn) (tested in a mixture with another compound)
inactive: endpoint: mean survival time, dose: 5.5 mg/kg/injection, schedule: Q04DX003 (ip), vehicle: water 105 % of control | endpoint: mean survival time, dose: 8.3 mg/kg/injection, schedule: Q04DX003 (ip), vehicle: water 102 % of control | endpoint: mean survival time, dose: 12.4 mg/kg/injection, schedule: Q04DX003 (ip), vehicle: water 102 % of control | endpoint: mean survival time, dose: 18.6 mg/kg/injection, schedule: Q04DX003 (ip), vehicle: water 108 % of control | endpoint: mean survival time, dose: 28.0 mg/kg/injection, schedule: Q04DX003 (ip), vehicle: water 103 % of control | endpoint: mean survival time, dose: 42.0 mg/kg/injection, schedule: Q04DX003 (ip), vehicle: water 103 % of control | endpoint: mean survival time, dose: 63.0 mg/kg/injection, schedule: Q04DX003 (ip), vehicle: water 90 % of control

COC(CCCl)c1ccc(Cl)cc1 (stereo not drawn)
inactive: [15] 96 % of control | [16] 96 % of control | [10] 96 % of control | endpoint: mean survival time, dose: 200.0 mg/kg/injection, schedule: Q01DX009 (ip), vehicle: saline 98 % of control | [11] 87 % of control

O=c1c2ccccc2[nH]c2cccc([N+](=O)[O-])c12
inactive: [2] 102 % of control | [10] 94 % of control | [4] 98 % of control | [11] 94 % of control | [6] 96 % of control | [12] 91 % of control

CC(Br)C(=O)c1ccc(OC(=O)c2ccccc2)cc1 (stereo not drawn)
inactive: [17] 100 % of control | [18] 100 % of control | [19] 100 % of control

CC(C(=O)O)C(C(=O)O)C(=O)O (stereo not drawn)
inactive: endpoint: mean survival time, dose: 100.0 mg/kg/injection, schedule: Q04DX003 (ip), vehicle: saline 93 % of control | endpoint: mean survival time, dose: 200.0 mg/kg/injection, schedule: Q04DX003 (ip), vehicle: saline 96 % of control

Cc1ccc(C)c2c1CC/C(=C\c1ccccc1[N+](=O)[O-])C2=O
inactive: [10] 96 % of control | [11] 97 % of control | [12] 91 % of control

CCOC(=O)c1cnn(C)c1N
inactive: [17] 103 % of control | [10] 102 % of control | [18] 103 % of control | [11] 102 % of control | [19] 97 % of control | [12] 104 % of control

N=C(N)c1ccc(N=Nc2c(O)ccc3cc(O)ccc23)cc1
inactive: endpoint: median survival time, dose: 12.5 mg/kg/injection, schedule: Q01DX005 (ip), vehicle: Klucel (hydroxypropylcellulose) (HPC) 104 % of control and 107 % of control | endpoint: median survival time, dose: 25.0 mg/kg/injection, schedule: Q01DX005 (ip), vehicle: Klucel (hydroxypropylcellulose) (HPC) 100 % of control and 102 % of control | endpoint: median survival time, dose: 50.0 mg/kg/injection, schedule: Q01DX005 (ip), vehicle: Klucel (hydroxypropylcellulose) (HPC) 90 % of control and 103 % of control | endpoint: median survival time, dose: 100.0 mg/kg/injection, schedule: Q01DX005 (ip), vehicle: Klucel (hydroxypropylcellulose) (HPC) 95 % of control and 107 % of control | endpoint: median survival time, dose: 200.0 mg/kg/injection, schedule: Q01DX005 (ip), vehicle: Klucel (hydroxypropylcellulose) (HPC) 104 % of control

CC1=CC(S)NC(=S)N1 (stereo not drawn)
inactive: [13] 103 % of control | [14] 95 % of control | [20] 106 % of control

CCN1CC2c3cc(OC)c(OC)cc3CC(c3ccccc3)C2C1 (stereo not drawn)
inactive: endpoint: mean survival time, dose: 12.5 mg/kg/injection, schedule: Q04DX003 (ip), vehicle: saline with Tween-80 108 % of control | endpoint: mean survival time, dose: 25.0 mg/kg/injection, schedule: Q04DX003 (ip), vehicle: saline with Tween-80 104 % of control | endpoint: mean survival time, dose: 50.0 mg/kg/injection, schedule: Q04DX003 (ip), vehicle: saline with Tween-80 92 % of control

CCCCS(=O)(=O)C(c1ccccc1)c1ccccc1
inactive: [21] 90 % of control | [22] 96 % of control | [23] 90 % of control

Cc1ccc(S(=O)(=O)NN=C2CCC3(CC2)c2ccccc2-c2ccccc23)cc1
inactive: [21] 96 % of control | [22] 96 % of control | [23] 98 % of control

[N-]=[N+]=CC(=O)NCC(=O)N/N=C/c1ccccn1
inactive: endpoint: mean survival time, dose: 100.0 mg/kg/injection, schedule: Q01DX009 (ip), vehicle: saline sonified 104 % of control | [10] 97 % of control | endpoint: mean survival time, dose: 200.0 mg/kg/injection, schedule: Q01DX009 (ip), vehicle: saline sonified 104 % of control | [11] 98 % of control | endpoint: mean survival time, dose: 400.0 mg/kg/injection, schedule: Q01DX009 (ip), vehicle: saline sonified 97 % of control | [12] 94 % of control

O=NC1C2CCC(C2)C1Cl (stereo not drawn)
inactive: endpoint: mean survival time, dose: 5.0 mg/kg/injection, schedule: Q01DX001 (ip), vehicle: saline 98 % of control | endpoint: mean survival time, dose: 10.0 mg/kg/injection, schedule: Q01DX001 (ip), vehicle: saline 97 % of control | endpoint: mean survival time, dose: 20.0 mg/kg/injection, schedule: Q01DX001 (ip), vehicle: saline 95 % of control

O=C1NN=C2CCCCC12 (stereo not drawn)
inactive: endpoint: mean survival time, dose: 100.0 mg/kg/injection, schedule: Q01DX009 (ip), vehicle: Klucel (hydroxypropylcellulose) (HPC) 97 % of control | endpoint: mean survival time, dose: 200.0 mg/kg/injection, schedule: Q01DX009 (ip), vehicle: Klucel (hydroxypropylcellulose) (HPC) 96 % of control | endpoint: mean survival time, dose: 400.0 mg/kg/injection, schedule: Q01DX009 (ip), vehicle: Klucel (hydroxypropylcellulose) (HPC) 102 % of control

Cc1ccc(-c2c(O)c(Br)c(-c3ccc(C)cc3C)c(O)c2Br)c(C)c1
inactive: [2] 97 % of control | [10] 93 % of control | [4] 97 % of control | [11] 90 % of control | [6] 94 % of control | [12] 92 % of control

CCN(CC)CCOC(=O)c1ccccc1Nc1cccc(C)c1
inactive: endpoint: mean survival time, dose: 25.0 mg/kg/injection, schedule: Q01DX009 (ip), vehicle: saline 89 % of control | [15] 101 % of control | [16] 97 % of control

COc1ccc2c(c1)C(=O)C(Br)CC2 (stereo not drawn)
inactive: [1] 101 % of control | [2] 98 % of control and 101 % of control | [13] 101 % of control and 102 % of control | [10] 108 % of control | [3] 93 % of control | [4] 97 % of control and 98 % of control | [14] 100 % of control and 104 % of control | [11] 97 % of control | [5] 95 % of control | [20] 103 % of control and 104 % of control | [12] 110 % of control
